pIC50: −log10 of the molar value.
Test system: 171881-019-R-J1-PDC tumor spheroids, viability
Assay: Anticancer human tumor 171881-019-R-J1-PDC patient-derived invasive breast carcinoma cell line growth inhibition [GQUAD]
Conditions: spheroids with HUVEC and MSC; for pIC50: curve of first compound; for viability, T/C: stronger effect = lower value; active = viability on the fitted dose curve at most 10% of control; inactive = the rest
How it was run: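 Tumor cells were grown as complex spheroids with HUVEC endothelial cells and mesenchymal stem cells as stroma. G-quadruplex stabilizers were combined with targeted agents over half-log dilutions from near the clinical Cmax, or from 10 microM.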

[1] = second compound 0.0316 µM, first compound 0.0316 µM
[2] = second compound 0.0316 µM, first compound 0.1 µM
[3] = second compound 0.0316 µM, first compound 0.316 µM
[4] = second compound 0.0316 µM, first compound 1 µM
[5] = second compound 0.0316 µM, first compound 3.16 µM
[6] = second compound 0.0316 µM, first compound 10 µM
[7] = second compound 0.1 µM, first compound 0.0316 µM
[8] = second compound 0.1 µM, first compound 0.1 µM
[9] = second compound 0.1 µM, first compound 0.316 µM
[10] = second compound 0.1 µM, first compound 1 µM
[11] = second compound 0.1 µM, first compound 3.16 µM
[12] = second compound 0.1 µM, first compound 10 µM
[13] = second compound 0.316 µM, first compound 0.0316 µM
[14] = second compound 0.316 µM, first compound 0.1 µM
[15] = second compound 0.316 µM, first compound 0.316 µM
[16] = second compound 0.316 µM, first compound 1 µM
[17] = second compound 0.316 µM, first compound 3.16 µM
[18] = second compound 0.316 µM, first compound 10 µM
[19] = second compound 1 µM, first compound 0.0316 µM
[20] = second compound 1 µM, first compound 0.1 µM
[21] = second compound 1 µM, first compound 0.316 µM
[22] = second compound 1 µM, first compound 1 µM
[23] = second compound 1 µM, first compound 3.16 µM
[24] = second compound 1 µM, first compound 10 µM
[25] = second compound 3.16 µM, first compound 0.0316 µM
[26] = second compound 3.16 µM, first compound 0.1 µM
[27] = second compound 3.16 µM, first compound 0.316 µM
[28] = second compound 3.16 µM, first compound 1 µM
[29] = second compound 3.16 µM, first compound 3.16 µM
[30] = second compound 3.16 µM, first compound 10 µM
[31] = second compound 10 µM, first compound 0.0316 µM
[32] = second compound 10 µM, first compound 0.1 µM
[33] = second compound 10 µM, first compound 0.316 µM
[34] = second compound 10 µM, first compound 1 µM
[35] = second compound 10 µM, first compound 3.16 µM
[36] = second compound 10 µM, first compound 10 µM
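Note: spheroids exposed to compounds for 7 days.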
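Throughout, for viability, T/C: 100% = DMSO vehicle control viability.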

COc1cc(C2c3cc4c(cc3C(OC3OC5COC(C)OC5C(O)C3O)C3COC(=O)C23)OCO4)cc(OC)c1O (stereo not drawn) + Cc1[nH]c2ccc(F)cc2c1-c1nc2c3cccnc3c3ncccc3c2[nH]1
6.08: pIC50 (second compound 0.316 µM)
6.06: pIC50 (second compound 1 µM)
> 7.50: pIC50 (second compound 3.16 µM) | pIC50 (second compound 10 µM)
6.12: pIC50 (second compound 0.1 µM)
inactive: viability, T/C [1] 93.2% | viability, T/C [2] 88.2% | viability, T/C [3] 74.5% | viability, T/C [4] 46.9% | viability, T/C [5] 33.3% | viability, T/C [6] 22.6% | viability, T/C [7] 97.9% | viability, T/C [8] 98.4% | viability, T/C [9] 77.7% | viability, T/C [10] 40.8% | viability, T/C [11] 33.3% | viability, T/C [12] 24.2% | viability, T/C [13] 98.7% | viability, T/C [14] 92.2% | viability, T/C [15] 72.8% | viability, T/C [16] 43.8% | viability, T/C [17] 33.3% | viability, T/C [18] 23.1% | viability, T/C [19] 80.1% | viability, T/C [20] 87.6% | viability, T/C [21] 66.3% | viability, T/C [22] 45.2% | viability, T/C [23] 37.7% | viability, T/C [24] 23.4% | viability, T/C [25] 28.9% | viability, T/C [26] 18.7% | viability, T/C [27] 22.6% | viability, T/C [28] 18.7% | viability, T/C [29] 17.7% | viability, T/C [30] 11.5% | viability, T/C [31] 40% | viability, T/C [32] 50.6% | viability, T/C [33] 35% | viability, T/C [34] 33.5% | viability, T/C [35] 26.5% | viability, T/C [36] 15.8%
6.02: pIC50 (second compound 0.0316 µM)

COc1cccc2c1C(=O)c1c(O)c3c(c(O)c1C2=O)CC(O)(C(=O)CO)CC3OC1CC(N)C(O)C(C)O1 (stereo not drawn) + Cc1[nH]c2ccc(F)cc2c1-c1nc2c3cccnc3c3ncccc3c2[nH]1
6.93: pIC50 (second compound 1 µM)
6.81: pIC50 (second compound 0.316 µM)
6.83: pIC50 (second compound 0.1 µM)
inactive: viability, T/C [1] 89.8% | viability, T/C [2] 51.9% | viability, T/C [3] 38.1% | viability, T/C [4] 16.4% | viability, T/C [7] 85.3% | viability, T/C [8] 55.3% | viability, T/C [9] 37.9% | viability, T/C [10] 16.5% | viability, T/C [13] 82.8% | viability, T/C [14] 56.4% | viability, T/C [15] 38.7% | viability, T/C [16] 13.9% | viability, T/C [19] 76.2% | viability, T/C [20] 47% | viability, T/C [21] 40.3% | viability, T/C [22] 14.7% | viability, T/C [25] 22.2% | viability, T/C [26] 17.1% | viability, T/C [27] 18.2% | viability, T/C [31] 38% | viability, T/C [32] 38.9% | viability, T/C [33] 23.1% | viability, T/C [34] 16.5%
6.87: pIC50 (second compound 0.0316 µM)
active: viability, T/C [5] 0.24% | viability, T/C [6] 0.22% | viability, T/C [11] 0.15% | viability, T/C [12] 0.52% | viability, T/C [17] 0.13% | viability, T/C [18] 0.5% | viability, T/C [23] 0.3% | viability, T/C [24] 0.77% | viability, T/C [28] 9.24% | viability, T/C [29] 0.43% | viability, T/C [30] 0.81% | viability, T/C [35] 0.93% | viability, T/C [36] 0.93%
> 7.50: pIC50 (second compound 3.16 µM) | pIC50 (second compound 10 µM)

Nc1ccn(C2OC(CO)C(O)C2(F)F)c(=O)n1 (stereo not drawn) + Cc1[nH]c2ccc(F)cc2c1-c1nc2c3cccnc3c3ncccc3c2[nH]1
inactive: viability, T/C [1] 25.9% | viability, T/C [2] 28.6% | viability, T/C [3] 39.9% | viability, T/C [4] 38.6% | viability, T/C [5] 36.5% | viability, T/C [6] 31.6% | viability, T/C [7] 25.8% | viability, T/C [8] 30.9% | viability, T/C [9] 38.6% | viability, T/C [10] 41.2% | viability, T/C [11] 35.9% | viability, T/C [12] 31.3% | viability, T/C [13] 26.7% | viability, T/C [14] 29.6% | viability, T/C [15] 35.7% | viability, T/C [16] 35.2% | viability, T/C [17] 38.6% | viability, T/C [18] 31.7% | viability, T/C [19] 26.7% | viability, T/C [20] 28.6% | viability, T/C [21] 38% | viability, T/C [22] 35.8% | viability, T/C [23] 39.1% | viability, T/C [24] 31.1% | viability, T/C [25] 18.5% | viability, T/C [26] 14% | viability, T/C [27] 19.1% | viability, T/C [28] 16.8% | viability, T/C [29] 19.9% | viability, T/C [30] 16.2% | viability, T/C [31] 20.3% | viability, T/C [32] 23.7% | viability, T/C [33] 27.2% | viability, T/C [34] 28.6% | viability, T/C [35] 26.6% | viability, T/C [36] 26.1%
> 7.50: pIC50 (second compound 0.0316 µM) | pIC50 (second compound 0.1 µM) | pIC50 (second compound 0.316 µM) | pIC50 (second compound 1 µM) | pIC50 (second compound 3.16 µM) | pIC50 (second compound 10 µM)

O=c1[nH]cc(F)c(=O)[nH]1 + Cc1[nH]c2ccc(F)cc2c1-c1nc2c3cccnc3c3ncccc3c2[nH]1
inactive: viability, T/C [1] 75.7% | viability, T/C [2] 64.5% | viability, T/C [3] 62.7% | viability, T/C [4] 54.1% | viability, T/C [5] 47.7% | viability, T/C [6] 53% | viability, T/C [7] 80.5% | viability, T/C [8] 70.7% | viability, T/C [9] 60.9% | viability, T/C [10] 54.7% | viability, T/C [11] 50.5% | viability, T/C [12] 53.5% | viability, T/C [13] 73.1% | viability, T/C [14] 65.8% | viability, T/C [15] 59.3% | viability, T/C [16] 52.7% | viability, T/C [17] 58.7% | viability, T/C [18] 52% | viability, T/C [19] 68.6% | viability, T/C [20] 55.4% | viability, T/C [21] 56.6% | viability, T/C [22] 50.2% | viability, T/C [23] 54.3% | viability, T/C [24] 48.8% | viability, T/C [25] 21% | viability, T/C [26] 21.6% | viability, T/C [27] 30.6% | viability, T/C [28] 23.8% | viability, T/C [29] 24.2% | viability, T/C [30] 24.7% | viability, T/C [31] 44.4% | viability, T/C [32] 47.8% | viability, T/C [33] 47.3% | viability, T/C [34] 42% | viability, T/C [35] 52.1% | viability, T/C [36] 38.8%
< 5.00: pIC50 (second compound 0.0316 µM) | pIC50 (second compound 0.1 µM) | pIC50 (second compound 0.316 µM) | pIC50 (second compound 1 µM)
> 7.50: pIC50 (second compound 3.16 µM) | pIC50 (second compound 10 µM)

Source: PubChem BioAssay AID2060498 (Molecular Pharmacology Branch, DTP, NCI, 2025)
